Measured values as given in PubChem BioAssay (NCI).
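All cell lines were grown in 96-well plates and treated with compound for 48 hours. TGI denotes the concentration required for complete inhibition of growth.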

Key:
Test in all cases: NCI anticancer screen, dose series, 48 h
SF-268 CNS = test system: SF-268 CNS
NCI/ADR-RES ovarian = test system: NCI/ADR-RES ovarian
OVCAR-5 ovarian = test system: OVCAR-5 ovarian
NCI-H522 lung = test system: NCI-H522 lung
SR leukemia = test system: SR leukemia
SK-MEL-28 melanoma = test system: SK-MEL-28 melanoma
A549 NSCLC = test system: A549 NSCLC
OVCAR-8 ovarian = test system: OVCAR-8 ovarian
HOP-62 NSCLC = test system: HOP-62 NSCLC
786-0 renal = test system: 786-0 renal
MDA-MB-435 = test system: MDA-MB-435
UO-31 renal = test system: UO-31 renal
NCI-H460 lung = test system: NCI-H460 lung
HT29 colon = test system: HT29 colon
SK-OV-3 ovarian = test system: SK-OV-3 ovarian
CCRF-CEM leukemia = test system: CCRF-CEM leukemia
SNB-19 CNS = test system: SNB-19 CNS
KM12 colon = test system: KM12 colon
PC-3 prostate = test system: PC-3 prostate

Compound	TGI (SF-268 CNS)	TGI (NCI/ADR-RES ovarian)	TGI (OVCAR-5 ovarian)	TGI (NCI-H522 lung)	TGI (SR leukemia)	TGI (SK-MEL-28 melanoma)	TGI (A549 NSCLC)	TGI (OVCAR-8 ovarian)	TGI (HOP-62 NSCLC)	TGI (786-0 renal)	TGI (MDA-MB-435)	TGI (UO-31 renal)	TGI (NCI-H460 lung)	TGI (HT29 colon)	TGI (SK-OV-3 ovarian)	TGI (CCRF-CEM leukemia)	TGI (SNB-19 CNS)	TGI (KM12 colon)	TGI (PC-3 prostate)
S=C(Nc1ccc2c(c1)oc1ccccc12)c1cccnc1	87.4 µM	> 100 µM	> 100 µM	64 µM	> 100 µM	> 100 µM	> 100 µM	> 100 µM	32.9 µM	> 100 µM	> 100 µM	> 100 µM	> 100 µM	> 100 µM	40.7 µM	> 100 µM	77.7 µM	> 100 µM	> 100 µM
N#Cc1c(Cl)cc(Cl)n2c1nc1ccccc12	40.1 µM	40.5 µM	41.9 µM	3.61 µM	> 29.6 µM	20.3 µM	34.7 µM	35 µM	51.7 µM	7.63 µM	35.3 µM	13.5 µM	23.7 µM	23.6 µM	31.2 µM	> 100 µM	50.7 µM	33.1 µM	29.3 µM
Cc1ccc2c(c1)C(=O)C1(C2)Cc2cccc(C)c2C1=O (stereo not given)	> 100 µM	> 100 µM	> 100 µM	> 100 µM	> 100 µM	> 100 µM	> 100 µM	> 100 µM	> 100 µM	> 100 µM	> 100 µM	> 100 µM	> 100 µM	> 100 µM	> 100 µM	> 100 µM	> 100 µM	> 100 µM	> 100 µM
CC(C)(C)OC(=O)NCCCNC1(c2cc3ccccc3s2)CCCCC1	33.8 µM	30.2 µM	27.5 µM	32 µM	28 µM	29.9 µM	27.2 µM	35.1 µM	28.5 µM	28.8 µM	28.7 µM	25.4 µM	30.5 µM	13.4 µM	26.2 µM	40.3 µM	27.2 µM	33.1 µM	47.6 µM
CC(=O)O[C@H]1CC[C@@]2(C)C(=CC[C@H]3[C@@H]4C[C@H](N5CCOCC5)[C@H](OC(C)=O)[C@@]4(C)CC[C@@H]32)C1	> 100 µM	> 100 µM	> 100 µM	> 100 µM	> 100 µM	> 100 µM	> 100 µM	> 100 µM	> 100 µM	> 100 µM	> 100 µM	> 100 µM	> 100 µM	> 100 µM	> 100 µM	> 100 µM	> 100 µM	> 100 µM	> 100 µM
COc1nc2nccnc2c(=O)n1C	> 10 µM	> 10 µM	> 10 µM	> 10 µM	> 10 µM	> 10 µM	> 10 µM	> 10 µM	> 10 µM	> 10 µM	> 10 µM	> 10 µM	> 10 µM	> 10 µM	> 10 µM	> 10 µM	> 10 µM	> 10 µM	> 10 µM
O=C1c2cccnc2-c2nccc3c2c1nc1cc(Br)ccc13	0.555 µM	0.0711 µM	0.527 µM	0.29 µM	0.0617 µM	0.325 µM	0.309 µM	0.388 µM	0.362 µM	0.188 µM	0.607 µM	0.568 µM	0.304 µM	2.45 µM	0.706 µM	0.465 µM	0.88 µM	0.338 µM	1.12 µM
Nc1ccc(C(=O)N2CCC[C@H]2CO)c(N)c1	> 100 µM	> 100 µM	> 100 µM	> 100 µM	> 100 µM	> 100 µM	> 100 µM	> 100 µM	> 100 µM	> 100 µM	> 100 µM	> 100 µM	> 100 µM	> 100 µM	> 100 µM	> 100 µM	> 100 µM	> 100 µM	> 100 µM
CC12CCC(O)CC1CCC1C2CCC2(C)C(C(=O)CC(O)C(F)(F)F)CCC12 (stereo not given)	> 100 µM	> 100 µM	> 76.5 µM	> 100 µM	11.2 µM	> 100 µM	> 100 µM	> 100 µM	> 95.1 µM	21.6 µM	> 100 µM	11.1 µM	> 100 µM	19.6 µM	79.5 µM	> 93.1 µM	69.6 µM	> 100 µM	> 100 µM
C[N+]12CCCCC1C(CN1C(=O)Cc3c4ccccc4c(c4ccccc34)CC1=O)CCC2 (stereo not given)	> 100 µM	> 100 µM	> 100 µM	> 100 µM	> 100 µM	> 100 µM	> 100 µM	> 100 µM	> 100 µM	> 100 µM	> 100 µM	> 100 µM	> 100 µM	> 100 µM	> 100 µM	> 100 µM	> 100 µM	> 100 µM	> 100 µM
CSc1ncnc2c1ncn2CCC#N	> 100 µM	> 100 µM	> 100 µM	> 100 µM	> 100 µM	> 100 µM	> 100 µM	> 100 µM	> 100 µM	> 100 µM	> 100 µM	> 100 µM	> 100 µM	> 100 µM	> 100 µM	> 100 µM	> 100 µM	> 100 µM	> 100 µM
NC(CCC(=O)NC(CSCC1C(=O)Nc2ccccc21)C(=O)NCC(=O)O)C(=O)O (stereo not given)	15.5 µM	19.7 µM	31.1 µM	2.8 µM	2.51 µM	14.5 µM	19.7 µM	13.4 µM	38.6 µM	8.55 µM	14.8 µM	1.74 µM	37.2 µM	14.7 µM	> 49.4 µM	> 24.8 µM	> 100 µM	> 32.9 µM	49 µM
CN(C)c1ccc(C2SCC(=O)N2c2ccc(Oc3ccc(Cl)cc3)c(Cl)c2)cc1 (stereo not given)	37.9 µM	50.7 µM	87.7 µM	42.9 µM	57.3 µM	> 100 µM	60.3 µM	86.4 µM	41 µM	41.7 µM	84 µM	29.6 µM	49.4 µM	39.8 µM	60.4 µM	69.5 µM	54.8 µM	40.9 µM	55.6 µM
O=C(O)/C=c1/c2ccccc2n2nc3ccccc3c12	> 100 µM	81 µM	> 100 µM	60 µM	49.2 µM	> 100 µM	> 100 µM	60.8 µM	> 100 µM	> 100 µM	> 100 µM	> 100 µM	> 100 µM	> 100 µM	65.7 µM	99.6 µM	87.3 µM	80.7 µM	> 100 µM
CC(C)=CCNc1ncnc2c1ncn2CCC#N	> 100 µM	> 100 µM	> 100 µM	> 100 µM	> 100 µM	> 100 µM	> 100 µM	> 100 µM	> 100 µM	> 100 µM	> 100 µM	> 100 µM	> 100 µM	> 100 µM	> 100 µM	> 100 µM	> 100 µM	> 100 µM	> 100 µM
CC(C)(Cl)C(Br)CCC(=CCCl)CBr (mixture of isomers)	4.21 µM	24.3 µM	21.4 µM	2.24 µM	3.92 µM	5.65 µM	32.8 µM	5.26 µM	8.33 µM	3.77 µM	3.71 µM	3.42 µM	5.71 µM	3.55 µM	31.2 µM	> 21.1 µM	6.87 µM	4.04 µM	7.22 µM
Nc1[nH]nc2nc3ccc(C(F)(F)F)cc3nc12	> 100 µM	> 100 µM	99.2 µM	38.8 µM	> 100 µM	42.6 µM	> 100 µM	46 µM	58.8 µM	60.7 µM	> 100 µM	49.9 µM	52.9 µM	> 100 µM	52.7 µM	37.9 µM	> 100 µM	> 100 µM	> 100 µM
CC(C)(C)C(=O)CC1=Nc2ccccc2SC1(O)CC(=O)C(C)(C)C (stereo not given)	81.1 µM	66.8 µM	69 µM	34.4 µM	33 µM	66 µM	51 µM	57 µM	76.2 µM	68.3 µM	64.5 µM	44.2 µM	38.5 µM	31.5 µM	53.6 µM	32.2 µM	> 100 µM	> 100 µM	73.6 µM
CC(=O)[C@@]1(O)CC[C@H]2[C@@H]3C[C@H](C)C4=CC(=O)C=C[C@]4(C)[C@@]3(F)[C@@H](O)C[C@@]21C	> 100 µM	> 100 µM	> 100 µM	> 100 µM	> 100 µM	> 100 µM	> 100 µM	> 100 µM	> 100 µM	> 100 µM	> 100 µM	> 100 µM	> 100 µM	> 100 µM	> 100 µM	> 100 µM	> 100 µM	> 100 µM	> 100 µM
C=C1C(=O)C=C[C@]2(C)CC[C@H]3C(=C)C(=O)O[C@@H]3[C@@H]12	11.7 µM	7.02 µM	3 µM	3.77 µM	6.11 µM	4.04 µM	29.8 µM	17.2 µM	6.36 µM	3.28 µM	3.21 µM	9 µM	33.1 µM	3.24 µM	21.2 µM	> 100 µM	87.6 µM	3.53 µM	15.7 µM
